The subject of data set [1] is TIM23. Briefly: TIM23 protein level/degradation after A/O, immunoblotting. To be noted: ST-539; HeLa-Parkin/USP30, A/O 18 h. In kind it is cell-based. The procedure: (§1) HeLa cells and mouse embryonic fibroblasts (MEFs) were grown in Dulbecco's minimum essential medium (DMEM) with 10% fetal bovine serum (FBS) supplemented with penicillin-streptomycin. HeLa Parkin, PINK1 KO cells, WT and MFN2 KO cells were previously described. Cells stably expressing USP30 were generated using lentiviral vectors of pLVX-Puro-Myc-USP30. The USP30 plasmid was obtained from Addgene. The plasmid was transferred into a lentiviral vector and viral particles were prepared by transiently transfecting HEK293T using standard methods. For the drug treatment experiments, cells were incubated in medium containing a mixture of 5 μM oligomycin and 5 μM antimycin A (A/O; see figures for treatment times). In 18 h treatment, A/O were used in combination with 10 μM quinolyl-valyl-O-methylaspartyl-[−2,6-difluorophenoxy]-methyl ketone (QVD), a broad-spectrum caspase inhibitor. […]
(§2) The enzymatic activity of Parkin is to function as an E3 ubiquitin ligase. […] We then employed this cellular assay to monitor TOM20 turnover, and analyzed compounds known to be associated with the ubiquitination process for inhibitors of USP30. […] Initially to assess mitophagy in cells, we monitored the degradation of the inner membrane protein, the translocase of the inner membrane 23 (TIM23), by immunoblotting (FIG. 5A). […]

For data set [2], the system named is TOM40. Description: TOM40 protein level/degradation after A/O, immunoblotting. The data set is classed as cell-based. As to conditions: ST-539; HeLa-Parkin/USP30, A/O 18 h. The method, then: as §1, §2
A general note: In western blotting, separated proteins are transferred to a membrane and probed.

A short description of data set [3]: Tissue concentrations 24 h post-dose. In kind it is in vivo, Male C57BL/6 Mice. The procedure:
ST-539 was dissolved into 1% DMSO in Sesame oil and injected intraperitoneally (i.p.) at doses of 25 mg/kg. Serial blood samples were collected at 0.083, 0.25, 0.5, 1, 2, 4 and 8 hours post dosing. Mice were euthanized at 24 hours post dosing. A terminal blood sample was collected by cardiac puncture followed by harvesting the brain and heart. Transcardial perfusion was performed prior to brain collection. The blood samples were placed in microtubes pretreated with K2EDTA as an anticoagulant and kept on ice until centrifugation. The tissue samples were rinsed using cold distilled water to remove blood, blotted dry, weighed and stored on dry ice until LC/MS/MS analysis. Plasma was transferred into polypropylene tubes or 96-well plates, quick frozen on dry ice, and stored at −70±10 °C until LC/MS/MS analysis.

In data set [4] the test system is LC3-II/LC3-I. Description: LC3 I/II immunoblotting of heart tissue. In kind it is in vivo, mice. As to conditions: 25 mg/kg/day i.p. for 5 days. The method, then:
Cells were lysed in RIPA buffer (50 mM Tris-HCl, at pH 8.0; 150 mM NaCl; 1% (vol/vol) Nonidet P-40; 0.5% sodium deoxycholate, 0.1% SDS and protease inhibitor cocktail (Roche)) on ice. Primary antibodies were used at the following concentrations: USP30 (Santa Cruz, sc-515235, 1:200); TOM20 (Cell Signaling Technology, 42406S, 1:1000); TOM40 (Proteintech, 18409-1-AP, 1:1000); NDP52 (Cell Signaling Technology, 60732S, 1:1000); TIM23 (Proteintech, 11123-1-AP, 1:500); LC3A/B (Cell Signaling Technology, 4108S, 1:1000); GAPDH (Cell Signaling Technology, 5175S, 1:1000); PINK1 (Cell Signaling Technology, 6946S, 1:1000); ACTIN (Cell Signaling Technology, 3700S, 1:1000). The membranes were incubated with anti-rabbit (LI-COR, 926-32211, 1:15000) or anti-mouse (LI-COR, 926-68072, 1:15000) IgG secondary antibodies for 1 h at room temperature. Images were captured using the Odyssey system (LI-Cor). One representative blot is shown of three independent experiments.
The mt-Keima mouse. […] The mice were lightly anesthetized with isoflurane and the ejection fraction, fractional shortening, and ventricular chamber dimensions were determined using 2-D-guided M mode images. Ejection fraction, fractional shortening, ventricular chamber dimensions, and left ventricular mass were calculated automatically using the VevoLAB program. […]

In data set [5] the test system is mice. Description: Safety / tolerability in mice. In kind it is in vivo. To be noted: 25 mg/kg/day i.p. for 5 days. The method, then: The mt-Keima mouse. ST-539 was dissolved into 1% DMSO in Sesame oil and injected intraperitoneally (i.p.) at doses of 25 mg/kg/day with five total doses. Both male and female mice were used in this study. The control group received vehicle only. Echocardiographic measurements were taken using a Vevo3100 Visual Sonics (Visual Sonics) system. The mice were lightly anesthetized with isoflurane and the ejection fraction, fractional shortening, and ventricular chamber dimensions were determined using 2-D-guided M mode images. Ejection fraction, fractional shortening, ventricular chamber dimensions, and left ventricular mass were calculated automatically using the VevoLAB program. All experiments involving animals were approved by the Institutional Animal Care and Use Committee at The Ohio State University.

The test system of data set [6] is Jurkat T cells. Description: Doxorubicin-induced apoptosis / cell viability, Resazurin assay. In kind it is cell-based. As to conditions: 48 hours, ST-539 and doxorubicin. Background: The colour change of resazurin is a common sign of viable cells or microbes.
Where [7] appears, read: 24 Hours Post-dose, 25 mg/kg i.p., mean.

Consider `CC(C)(C)NS(=O)(=O)c1cccc2c(NC(=O)C(Cc3ccccc3)NC(=O)c3ccccc3)cccc12` (stereo not drawn) [ST-539], for which the TIM23 degradation result in data set [1] is “restored TIM23 and TOM40 degradation”. Further, the TOM40 degradation result in data set [2] is “restored TIM23 and TOM40 degradation”. For the same compound, in data set [3] (setting [7]), the Brain concentration was 17.4 ng/g and the Heart concentration was determined as 37.0 ng/g. Also, the “ST-539 detected in mouse brain homogenate” value in data set [3] (24 h post-dose) is “modest concentrations”. Moreover, the “LC3-II/LC3-I ratio in heart” value in data set [4] was “increase in LC3-II/LC3-I ratio”. In addition, the “LC3-II level in heart” value in data set [4] (*p<0.05) was “increased levels of LC3-II”. Moreover, the “safety / tolerability in mice” value in data set [5] was “appears to be safe in mice”. Further, the “doxorubicin-induced apoptosis in leukemia (percent cell viability)” value in data set [6] was “potentiates doxorubicin-induced apoptosis in leukemia”.

The values are drawn from patent US20260373103A1, “COMPOSITIONS AND METHODS FOR PREVENTING CARDIOMYOPATHY” (OHIO STATE INNOVATION FOUNDATION, priority 2022, published 2026).
